These results are taken from US8663616B2, “Enzymatic peracid generation for use in oral care products” (E I du Pont de Nemours and Company, priority 2010, dated 2014).

Ends that are not written are not given here. * marks the point of attachment. Biotin = O=C1N[C@H]2[C@H](CS[C@H]2CCCCC(=O)*)N1

Assay [1] concerns the target T1, C277S (SEQ ID NO: 424) (Thermotoga maritima, UniProt Q9WXT2, C277S).
T1 construct: made in house; host or cells: E. coli
It counts as biochemical. As to conditions: 100 mM ester, 60 mM H2O2, 40 ppm enzyme, 95 mM phosphate pH 7.2, 37° C.
Description: (§1) To test various enzymes against an ester substrate, it was convenient to run up to 4 reactions simultaneously by staggering the beginning of each individual reaction by 0.5-1 min. Each individual reaction was performed in a glass vessel (height: 76 mm; o.d.: 33 mm; i.d.: 24 mm) equipped with a magnetic stirring bar. Four reaction vessels were banded together and kept at constant temperature in a jacketed one-liter, stainless steel, tempering beaker (KGW IsoTherm, # TSS-G 1000W) with circulating water controlled by a Thermo NesLab recirculation bath (Model # RTE-7 Digital One). Buffer (6 mL, 100 mM sodium phosphate buffer, pH 7.2) was added to each reaction vessel and allowed to equilibrate to 37° C. The ester substrate of interest was added to achieve 100 mM concentration. […] To follow the production of peracetic acid, 80 μL samples from each reaction were removed at specific intervals from 1 to 15 minutes. The sample was immediately quenched in a microfuge filter tube (NanoSep 30K VWR cat #82031-354) containing a volume and concentration of phosphoric acid solution that was sufficient to stop the enzymatic reaction (by lowering the pH between 2 and 3) and to dilute the sample for convenient HPLC analyses. The acid-quenched samples were centrifuged for 5 minutes to remove any particulates.

Assay [2] has as its target T2, C277T (SEQ ID NO: 437) (Thermotoga maritima, UniProt Q9WXT2, C277T).
T2 construct: made in house; host or cells: E. coli
It counts as biochemical. The conditions noted are these: 100 mM ester, 60 mM H2O2, 40 ppm enzyme, 95 mM phosphate pH 7.2, 37° C.
Description: as §1

Assay [3] addresses T3, C277T/R296P (SEQ ID NO: 476) (Thermotoga maritima, UniProt Q9WXT2, C277T/R296P).
T3 construct: made in house; host or cells: E. coli
It counts as biochemical. The conditions noted are these: 100 mM ester, 60 mM H2O2, 40 ppm enzyme, 95 mM phosphate pH 7.2, 37° C.
Description: as §1

The target of assay [4] is T4, Wild Type (SEQ ID NO: 16) (Thermotoga maritima, UniProt Q9WXT2).
T4 construct: made in house; host or cells: E. coli
T4 sequence (Q9WXT2 1-325): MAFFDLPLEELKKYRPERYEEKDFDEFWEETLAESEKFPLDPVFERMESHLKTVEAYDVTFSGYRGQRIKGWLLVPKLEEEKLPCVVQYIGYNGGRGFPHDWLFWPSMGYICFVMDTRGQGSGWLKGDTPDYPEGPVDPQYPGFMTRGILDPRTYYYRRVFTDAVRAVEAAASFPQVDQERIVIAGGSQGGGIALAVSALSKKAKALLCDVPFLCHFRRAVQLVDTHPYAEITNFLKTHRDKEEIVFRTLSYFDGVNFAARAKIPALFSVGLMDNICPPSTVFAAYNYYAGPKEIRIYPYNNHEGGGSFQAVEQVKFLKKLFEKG
Put plainly: Maximum peracetic acid from ester substrates with wild type perhydrolase (Example 14). It counts as biochemical. As to conditions: 100 mM ester, 60 mM H2O2, 40 ppm enzyme, 95 mM phosphate pH 7.2, 37° C.
Description: as §1

Assay [5] in a line: Bleaching of coffee-tea stained bovine enamel with EZ-1 and various ester substrates (Example 15). On the set-up: Whiteness Index Treatment 0 / Whiteness Index Treatment 1 / Whiteness Index Treatment 2 / Whiteness Index Treatment 3 / ΔWI: scale not given here. As to conditions: for Whiteness Index Treatment 1: after 1 x 30 min treatment; for Whiteness Index Treatment 2: after 2 x 30 min treatments; for Whiteness Index Treatment 3: after 3 x 30 min treatments; for Whiteness Index Treatment 0: before treatment, 40 ppm EZ-1, 100 mM substrate, H2O2 100 mM (TA), 360 mM (PGDA, SOC), 60 mM (GPA), pH 7.2, control 9% H2O2 pH 5.3 without enzyme; for change in whiteness index (in words): enzymatically generated peracetic acid with EZ-1, each successive treatment; for ΔWI: treatment 0 to treatment 3. On the procedure:
The optimal conditions used for the generation of peracetic acid with each substrate were derived from the studies in Example 14 and are listed below as follows:
Bovine enamel incisors were prepared as indicated in Example 1. The stained enamel blocks were placed in a 24 well plate with the dentin side facing down and hydrated overnight in phosphate buffer, pH 7.2. Prior to treatment, a color measurement of each tooth was performed using a Konica-Minolta 2600d spectrophotometer and whiteness index was calculated as specified in Example 1.
Each enzyme solution was prepared in a 1.5-mL microfuge tube (Eppendorf, #2243102-1) and 1 mL of the solution was immediately transferred to the 24 well plate containing the pre-hydrated teeth. The control samples consisted of 100 mM phosphate buffer, pH 7.2 and 9% H2O2 in 100 mM citrate/phosphate buffer, pH 5.3. The teeth were incubated at room temperature for 30 minutes, removed, rinsed with 100 mM phosphate, pH 7.2 and a color measurement was taken. The teeth were placed back into the 24 well plate at which time fresh enzyme solutions were prepared and added to each well. This process was repeated for a total of 3 whitening treatments; 30 min per treatment (Table 22).

The conditions of assay [6]: 20 μM biotin-labelled peptide, 30 min 37° C.; streptavidin-HRP, QuantaBlu; three replicate enamel substrates; no peptide 494.2. The protocol: A total of 11 synthetic peptides were manufactured using sequences obtained from Table 3. Peptides were obtained from SynBioSci Corp. (Livermore, Calif.) with biotin labeled lysine at the C-terminus.
Enamel substrates were prepared as described in Example 2. Each substrate was incubated for 1 h at room temperature (˜22° C.) with 1 mL of blocking buffer, consisting of 1 mg/mL BSA in PBST (Pierce BUPH™ #28372 with 0.1% TWEEN® 20). The blocking buffer was removed by aspirating the liquid out of each well. The tube was rinsed 2 times with wash buffer consisting of PBST. The wells were filled with 500 μL of 20 μM peptide solution which was prepared by diluting in blocking buffer. The samples were incubated for 30 min with slow shaking at 37° C. The non-binding peptide was removed by washing 6 times with PBST. Then, 500 μL of horseradish peroxidase/streptavidin conjugate (Pierce #22127), diluted 1:1000 in PBST, was added and incubated for 1 h at room temperature (˜22° C.). The conjugate solution was removed and the enamel blocks were washed 4 times with PEST.
Each enamel substrate was removed from the well and washed again in a 15-mL test tube with 10 mL of PBST. Each enamel substrate was then mounted in a clean well plate with only the enamel surface exposed. 200 μL of a QUANTABLU™ Substrate Solution (Thermo-Fisher, Rockford, Ill.; #1856187) was added directly to each enamel block. The solution was incubated for 20 min at room temperature. 200 μL of QUANTABLU™ Stop Solution (Thermo Fisher) was added. After mixing, 200 μL of solution was transferred to a clean 96-well black microcentrifuge plate. The fluorescence of the plate was measured with 325 nm excitation and 420 nm emission with no cutoff wavelength using a microplate spectrophotometer (Molecular Devices, Sunnyvale, Calif.). The analysis of the 11 pellicle/enamel binding candidates was compared to a known binding peptide, DenP03. Each sequence was tested with three replicate enamel substrates.

T1 sequence (Q9WXT2 whole entry C277S): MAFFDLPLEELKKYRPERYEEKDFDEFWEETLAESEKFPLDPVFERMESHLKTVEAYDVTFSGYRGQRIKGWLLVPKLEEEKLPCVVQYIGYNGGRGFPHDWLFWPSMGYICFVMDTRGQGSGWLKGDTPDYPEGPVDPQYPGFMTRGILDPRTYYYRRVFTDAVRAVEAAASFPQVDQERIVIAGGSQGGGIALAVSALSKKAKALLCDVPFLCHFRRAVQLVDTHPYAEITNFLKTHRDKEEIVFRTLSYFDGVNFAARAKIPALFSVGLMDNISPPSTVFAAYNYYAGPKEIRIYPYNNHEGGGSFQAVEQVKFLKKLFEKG
T2 sequence (Q9WXT2 whole entry C277T): as the sequence (Q9WXT2 whole entry C277S) above, with S277T counted along it
T3 sequence (Q9WXT2 whole entry C277T/R296P): as the sequence (Q9WXT2 whole entry C277S) above, with S277T, R296P counted along it

`CC(=O)OCC(COC(C)=O)OC(C)=O` [Triacetin]: the “Maximum Peracetic Acid (PAA) (ppm), C277S (SEQ ID NO: 424)” value in assay [1] is on record as 1977 ppm. Moreover, the “Maximum Peracetic Acid (PAA) (ppm), C277T (SEQ ID NO: 437)” value in assay [2] was 2311 ppm. For the same molecule, the “Maximum Peracetic Acid (PAA) (ppm), C277T/R296P (SEQ ID NO: 476)” value in assay [3] is 2291 ppm. The “Maximum Peracetic Acid (PAA) (ppm), Wild Type (SEQ ID NO: 16)” value in assay [4] turned out to be 937 ppm. Besides, in assay [5], the “Whiteness Index Treatment 1” value is −108.7, the “Whiteness Index Treatment 2” value is −86.7, the “Whiteness Index Treatment 3” value is −86.1 and the “Whiteness Index Treatment 0” value is −189.9. In assay [5], the “change in whiteness index (in words)” value is given as “significant change in whiteness index” and the ΔWI worked out at 103.8.

Take `CC(=O)OC[C@H]1O[C@H](OC(C)=O)[C@H](OC(C)=O)[C@@H](OC(C)=O)[C@@H]1OC(C)=O` [α-D-glucose pentaacetate]: in assay [1], the “Maximum Peracetic Acid (PAA) (ppm), C277S (SEQ ID NO: 424)” value was found to be 2091 ppm. Also, in assay [2], the “Maximum Peracetic Acid (PAA) (ppm), C277T (SEQ ID NO: 437)” value came out at 2542 ppm. Also, in assay [3], the “Maximum Peracetic Acid (PAA) (ppm), C277T/R296P (SEQ ID NO: 476)” value worked out at 1678 ppm. Moreover, in assay [4], the “Maximum Peracetic Acid (PAA) (ppm), Wild Type (SEQ ID NO: 16)” value amounted to 1188 ppm. In assay [5], the “Whiteness Index Treatment 1” value is given as −128.7, the “Whiteness Index Treatment 2” value is −105.3, the “Whiteness Index Treatment 3” value was −95.9 and the “Whiteness Index Treatment 0” value is −225.2. In addition, in assay [5], the “change in whiteness index (in words)” value was “significant change in whiteness index” and the ΔWI was determined as 129.3.

Regarding “ANSGFPIWLQKYPWSEVQQEK (Biotin) [DenP309]”, in assay [6], the “Avg Fluorescence 325/420” value was 1729.5.

Take ATPSQHRYGLMQNHAPNGIEK(Biotin) [DenP311]: the “Avg Fluorescence 325/420” value in assay [6] turned out to be 795.3.

For DLGTFPNRTLKMAAHK(Biotin) [DenP304], the “Avg Fluorescence 325/420” value in assay [6] is listed as 642.8.

As to DTIHPNKMKSPSSPLK (Biotin) [DenP305], in assay [6], the “Avg Fluorescence 325/420” value came to 581.2.

As to GMGSEVLSQYPQAPVGK(Biotin) [DenP312], the “Avg Fluorescence 325/420” value in assay [6] was found to be 2301.0.

As to GSNNHLPSTVPRLTVK(Biotin) [DenP306], the “Avg Fluorescence 325/420” value in assay [6] is reported as 1300.0.

Take HDPYTMKSALRQSTSK(Biotin) [DenP303]: the “Avg Fluorescence 325/420” value in assay [6] was 948.6.

For QAAQVHMMQHSRPTTK (Biotin) [DenP302], the “Avg Fluorescence 325/420” value in assay [6] is 608.6.

As to SNATMYNIQSHSHHQK (Biotin) [DenP301], the “Avg Fluorescence 325/420” value in assay [6] is given as 1098.4.

On to SNPIPNFAHDLRHSKYNSK (Biotin) [DenP307], for which the “Avg Fluorescence 325/420” value in assay [6] turned out to be 861.6.

For TKPPRTPTANTSRPHHNFK(Biotin) [DenP308], in assay [6], the “Avg Fluorescence 325/420” value was determined as 12302.6.

As to “TTYHYKNIYQESYQQRNPAVK (Biotin) [DenP03, reference compound]”, in assay [6], the “Avg Fluorescence 325/420” value came to 3448.3.
